These results are taken from patent EP0496162A2, “Peptide inhibitors of RAS-GAP interaction” (MERCK & CO. INC., priority 1990, dated 1992).

No end group written: not given here.

This test deals with T1, S. cerevisiae adenylyl cyclase (Ras Dependent, strain FlD reconstituted with purified Ras) (Saccharomyces cerevisiae, UniProt P08678).
T1 construct: Since these membranes contain adenylyl cyclase, but are lacking Ras protein; endogenous in cells; host or cells: membranes of S. cerevisiae strain FlD
T1 sequence (P08678 whole entry): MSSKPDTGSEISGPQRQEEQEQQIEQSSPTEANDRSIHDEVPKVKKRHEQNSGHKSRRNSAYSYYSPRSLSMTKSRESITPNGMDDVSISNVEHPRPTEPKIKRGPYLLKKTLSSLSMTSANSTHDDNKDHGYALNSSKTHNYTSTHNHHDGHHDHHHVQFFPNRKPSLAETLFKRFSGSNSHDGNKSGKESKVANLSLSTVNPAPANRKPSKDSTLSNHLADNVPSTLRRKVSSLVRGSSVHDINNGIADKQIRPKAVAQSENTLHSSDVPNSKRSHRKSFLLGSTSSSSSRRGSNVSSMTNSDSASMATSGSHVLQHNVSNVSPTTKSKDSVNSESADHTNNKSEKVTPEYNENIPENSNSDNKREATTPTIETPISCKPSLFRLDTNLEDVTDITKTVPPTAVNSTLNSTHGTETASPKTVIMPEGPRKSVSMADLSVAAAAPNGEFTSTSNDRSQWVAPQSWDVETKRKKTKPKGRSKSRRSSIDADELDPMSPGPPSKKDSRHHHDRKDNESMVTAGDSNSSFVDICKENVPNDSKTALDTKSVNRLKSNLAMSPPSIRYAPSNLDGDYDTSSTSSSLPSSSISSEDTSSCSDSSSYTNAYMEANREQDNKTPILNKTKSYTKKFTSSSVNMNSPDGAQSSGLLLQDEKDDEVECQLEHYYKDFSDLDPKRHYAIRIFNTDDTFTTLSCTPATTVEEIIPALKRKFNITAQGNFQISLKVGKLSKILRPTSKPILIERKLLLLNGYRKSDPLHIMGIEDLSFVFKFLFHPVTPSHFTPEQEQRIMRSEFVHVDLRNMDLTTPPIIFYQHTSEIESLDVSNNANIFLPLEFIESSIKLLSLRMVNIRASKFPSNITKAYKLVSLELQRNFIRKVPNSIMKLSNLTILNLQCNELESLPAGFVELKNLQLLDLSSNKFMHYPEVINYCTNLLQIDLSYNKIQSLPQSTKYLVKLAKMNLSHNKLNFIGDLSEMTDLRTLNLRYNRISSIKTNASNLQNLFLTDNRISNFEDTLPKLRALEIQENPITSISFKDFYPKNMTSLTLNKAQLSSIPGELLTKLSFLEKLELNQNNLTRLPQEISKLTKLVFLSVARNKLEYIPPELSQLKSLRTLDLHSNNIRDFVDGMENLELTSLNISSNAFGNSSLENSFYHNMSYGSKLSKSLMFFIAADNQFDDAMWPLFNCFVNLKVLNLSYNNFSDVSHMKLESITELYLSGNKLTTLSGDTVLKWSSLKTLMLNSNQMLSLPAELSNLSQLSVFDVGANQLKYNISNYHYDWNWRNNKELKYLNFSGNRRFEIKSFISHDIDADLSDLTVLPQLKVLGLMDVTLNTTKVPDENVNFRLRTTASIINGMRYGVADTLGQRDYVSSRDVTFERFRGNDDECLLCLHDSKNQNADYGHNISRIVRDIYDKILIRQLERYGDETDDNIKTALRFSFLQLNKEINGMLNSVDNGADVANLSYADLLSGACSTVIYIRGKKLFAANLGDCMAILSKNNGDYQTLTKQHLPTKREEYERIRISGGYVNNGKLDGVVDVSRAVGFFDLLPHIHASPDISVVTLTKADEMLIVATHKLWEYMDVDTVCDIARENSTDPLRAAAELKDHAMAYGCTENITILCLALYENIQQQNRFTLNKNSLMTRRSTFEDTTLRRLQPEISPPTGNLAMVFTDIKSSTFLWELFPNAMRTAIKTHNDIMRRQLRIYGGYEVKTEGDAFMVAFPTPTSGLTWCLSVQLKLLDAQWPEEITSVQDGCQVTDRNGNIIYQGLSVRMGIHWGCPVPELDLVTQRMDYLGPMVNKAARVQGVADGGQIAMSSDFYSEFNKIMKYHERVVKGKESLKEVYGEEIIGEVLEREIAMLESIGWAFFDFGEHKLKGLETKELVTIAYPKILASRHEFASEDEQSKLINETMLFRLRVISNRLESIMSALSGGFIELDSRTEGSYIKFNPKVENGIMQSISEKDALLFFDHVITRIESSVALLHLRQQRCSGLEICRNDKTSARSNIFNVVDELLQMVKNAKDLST
Description: Yeast adenylyl cyclase assay, reconstitution of FlD membranes with purified Ras protein. The format is biochemical. The following applies: part B, FlD membranes with 5 µM purified Ras protein, peptide 10 µM. An excerpt:
Another Ras-dependent enzymatic assay was used to extend the observed ability of the peptides of the present invention to inhibit Ras function. This system, yeast adenylyl cyclase assay, measures the Ras-dependent conversion of ATP into cyclic AMP (cAMP). […] Furthermore, in S. cerevisiae, regulation of cAMP metabolism appears to be a major function of Ras. This assay system was used to extend the observed Ras inhibitory activity of the peptides of the present invention, to a Ras function which is GAP-unrelated. S. cerevisiae strain FlD lacks functional Ras proteins, however FlD cells have functional adenylyl cyclase in their cell membrane. […] Similarly, a recombinant S. cerevisiae strain MY1186, lacks yeast Ras proteins but expresses mammalian Ras protein which functions with adenylyl cyclase to regulate cAMP metabolisim in the yeast cells. […] In contrast, S. cerevisiae strain JC377-10B contains a mutant form of adenylyl cyclase which constitutively converts ATP into cAMP with or without Ras.
Ras peptides were tested at the indicated concentrations for inhibition of S. cerevisiae adenylyl cyclase activity. […] Ras-independent activity was assayed with membranes from strain JC377-10B (ras-minus, constitutively active adenylyl cyclase).
Yeast strain FlD, MY1186 and JC377-10B, were grown in YEHD medium at 30°C. Membrane fractions were prepared from cultures grown to an A₆₆₀ of 0.5 to 1.0 by glusulase digestion [Casperson, G.F. et al., (1983), J. Biol. Chem., 258, pp. 7911-7914], Dounce homogenization of the spheroplasts in buffer containing 50 mM sodium MES [2(N-morpholino) ethanesulfonic acid] […] Adenylyl cyclase assays (100-µL reaction volume) measured the conversion of [α-³²P]ATP to [³²P]cAMP at 30°C, using 50 µg to 100 µg of membrane protein in assays using membranes from yeast strains MY1186 and JC377-10B.. […] Since these membranes contain adenylyl cyclase, but are lacking Ras protein, stimulation of adenylyl cyclase activity may be measured following reconstitution with purified Ras complexed with GTP. […]

Consider “GQEEYSAMRDQYMRTGE [Ras 60-76, reference compound]”, for which the “%Inhibition of Adenylyl Cyclase Activity Ras Dependent” value stood at 6 ± 1%.
